# Assay results reported in patent US6166290A, “Glutathione-S-conjugate transport in plants” (The Trustees of the University of Pennsylvania, priority 1997, dated 2000).
# Where “and” joins values, the source holds several entries; their conditions need not be identical. Equal values may be shown once. Read-outs that look alike come from different tables or passages of the source.
# Key:
# [1] = test system: vacuolar GS-X pump (vacuolar membrane vesicles, Z. mays roots); conditions: Zea mays root; cited from earlier work
# [2] = target: T1, AtMRP2 (Arabidopsis thaliana, UniProt Q42093); assay: AtMRP2-dependent uptake by membrane vesicles from pYES3-AtMRP2-transformed DTY168 cells; assay type: biochemical
# T1 construct: S. cerevisiae DTY168 (ycf1 null) vacuolar-enriched membrane vesicles
# T1 sequence (Q42093 whole entry): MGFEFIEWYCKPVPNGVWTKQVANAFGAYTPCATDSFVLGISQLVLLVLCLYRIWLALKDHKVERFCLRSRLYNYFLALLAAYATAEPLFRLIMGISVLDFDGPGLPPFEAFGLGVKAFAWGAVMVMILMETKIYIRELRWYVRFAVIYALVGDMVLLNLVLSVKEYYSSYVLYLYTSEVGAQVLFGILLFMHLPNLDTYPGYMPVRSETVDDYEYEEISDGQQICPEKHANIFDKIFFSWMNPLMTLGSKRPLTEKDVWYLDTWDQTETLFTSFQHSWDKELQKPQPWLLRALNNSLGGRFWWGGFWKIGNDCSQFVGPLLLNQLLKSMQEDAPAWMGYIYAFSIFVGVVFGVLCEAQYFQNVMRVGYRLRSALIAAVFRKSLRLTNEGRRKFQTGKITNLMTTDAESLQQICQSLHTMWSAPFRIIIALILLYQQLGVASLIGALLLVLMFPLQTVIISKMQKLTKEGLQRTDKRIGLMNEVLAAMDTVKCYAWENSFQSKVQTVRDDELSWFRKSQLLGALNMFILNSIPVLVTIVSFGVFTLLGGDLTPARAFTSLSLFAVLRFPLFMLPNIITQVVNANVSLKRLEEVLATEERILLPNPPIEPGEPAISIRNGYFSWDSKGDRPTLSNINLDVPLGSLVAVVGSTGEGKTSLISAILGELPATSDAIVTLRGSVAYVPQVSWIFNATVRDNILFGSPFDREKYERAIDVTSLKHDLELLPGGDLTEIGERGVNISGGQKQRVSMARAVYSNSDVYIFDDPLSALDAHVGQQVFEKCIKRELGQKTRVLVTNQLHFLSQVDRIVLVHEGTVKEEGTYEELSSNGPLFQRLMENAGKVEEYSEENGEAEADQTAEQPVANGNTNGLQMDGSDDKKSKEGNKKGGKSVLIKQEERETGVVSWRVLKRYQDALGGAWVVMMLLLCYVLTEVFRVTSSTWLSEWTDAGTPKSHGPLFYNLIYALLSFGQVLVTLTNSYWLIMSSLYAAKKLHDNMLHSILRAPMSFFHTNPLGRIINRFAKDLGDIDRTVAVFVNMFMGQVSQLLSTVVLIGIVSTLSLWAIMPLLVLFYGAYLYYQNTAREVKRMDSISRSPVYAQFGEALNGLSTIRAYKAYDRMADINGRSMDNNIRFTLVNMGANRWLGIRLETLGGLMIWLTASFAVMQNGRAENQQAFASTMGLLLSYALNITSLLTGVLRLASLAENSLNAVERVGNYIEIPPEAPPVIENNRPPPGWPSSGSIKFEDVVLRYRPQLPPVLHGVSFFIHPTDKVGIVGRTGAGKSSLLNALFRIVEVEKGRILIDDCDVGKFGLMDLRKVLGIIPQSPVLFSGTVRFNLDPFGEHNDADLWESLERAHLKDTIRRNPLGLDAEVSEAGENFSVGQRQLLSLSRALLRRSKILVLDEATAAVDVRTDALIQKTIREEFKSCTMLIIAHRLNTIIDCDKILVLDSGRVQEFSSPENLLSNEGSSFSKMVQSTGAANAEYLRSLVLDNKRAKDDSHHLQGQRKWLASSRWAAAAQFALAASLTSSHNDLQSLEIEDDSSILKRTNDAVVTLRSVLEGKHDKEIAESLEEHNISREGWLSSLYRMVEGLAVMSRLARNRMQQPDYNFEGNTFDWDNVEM
# Procedure: Cells were grown and vacuolar membrane-enriched vesicles were prepared as described (Kim et al., 1995, J Biol. Chem. 270:2630-2635-). […] Uptake was terminated by the addition of 1 ml ice-cold wash medium (400 mM sorbitol/3 mM Tris-Mes, pH 8.0) and vacuum filtration of the suspension through prewetted Millipore HA cellulose nitrate filters (pore size 0.45 μm). The filters were rinsed twice with wash medium, and the retained radioactivity was determined by liquid scintillation counting. Nonenergized uptake was estimated by the same procedure except that ATP was omitted from the uptake medium.
# Membranes from DTY168/pYES3-AtMRP2 cells were incubated for 10 minutes in standard uptake medium containing 61.3 μM [^3 H]DNP-GS after which time 200 mM glucose and 50 units/ml hexokinase (Type F-300 from baker's yeast) were added. […] Control samples were treated identically except that no additions were made after the initial 10 minute incubation period.
# [3] = test system: endogenous GS-X pump of plant vacuolar membranes; conditions: read-out: Km for transport by endogenous plant vacuolar GS-X pump; cited from earlier work
# [4] = test system: membrane vesicles purified from pYES3-transformed DTY168 cells; assay: DNP-GS uptake by membrane vesicles from pYES3 (empty vector)-transformed DTY168 cells; assay type: biochemical, Saccharomyces cerevisiae
# Procedure: S. cerevisiae strain DTY168 (MATα his6, leu2-3, -112, ura3-52 ycf1::hisG) was transformed with pYES3-AtMRP1 or empty vector lacking the AtMRP1 insert (pYES3) by the LiOAc/PEG method (Giest et al., 1991, Yeast 7:253-263) and selected for uracil prototrophy by plating on AHC medium containing tryptophan (Kim et al., 1994, supra).
# For the preparation of membrane vesicles, 15 ml volumes of stationary phase cultures of the transformants were diluted into 1 L of fresh AHC medium and grown to an OD600 nm of about 1.2. Membrane vesicles were purified as described herein and in Kim et al. (1995, supra).
# DNP-GS uptake was measured as described herein in 200 μl reaction volumes containing 3 mM ATP, 3 mM MgSO4, 5 μM gramicidin-D, 10 mM creatine phosphate, 16 units/ml creatine kinase, 50 mM KCl, 1 mg/ml BSA, 400 mM sorbitol, 25 mM Tris-Mes (pH 8.0) and the indicated concentrations of [^3 H]DNP-GS (17.4 mCi/mmol).
# [5] = test system: vacuolar membrane vesicles purified from DTY167 cells (ycf1Δ mutant); assay type: biochemical, Saccharomyces cerevisiae
# How it was run: (§1)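 ATP-dependent [3H]DNP-GS (66.2 μM) transport measured by filtration and scintillation counting of Ficoll-purified yeast vacuolar vesicles (DTY165 wild type; DTY167 ycf1Δ), 1–60 min at 25 °C in sorbitol/Tris-Mes pH 8.0 with 3 mM ATP, 3 mM MgSO4 and gramicidin-D. Nonenergized uptake without ATP/Mg2+.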
# [6] = target: T2, YCF1 (vacuolar membrane vesicles purified from DTY165 cells) (Saccharomyces cerevisiae, UniProt P39109); assay: [3H]DNP-GS uptake by vacuolar membrane vesicles purified from DTY165 cells; assay type: biochemical
# T2 construct: endogenous in cells; host or cells: S. cerevisiae DTY165 (wild type YCF1), vacuolar membrane vesicles
# T2 sequence (P39109 whole entry): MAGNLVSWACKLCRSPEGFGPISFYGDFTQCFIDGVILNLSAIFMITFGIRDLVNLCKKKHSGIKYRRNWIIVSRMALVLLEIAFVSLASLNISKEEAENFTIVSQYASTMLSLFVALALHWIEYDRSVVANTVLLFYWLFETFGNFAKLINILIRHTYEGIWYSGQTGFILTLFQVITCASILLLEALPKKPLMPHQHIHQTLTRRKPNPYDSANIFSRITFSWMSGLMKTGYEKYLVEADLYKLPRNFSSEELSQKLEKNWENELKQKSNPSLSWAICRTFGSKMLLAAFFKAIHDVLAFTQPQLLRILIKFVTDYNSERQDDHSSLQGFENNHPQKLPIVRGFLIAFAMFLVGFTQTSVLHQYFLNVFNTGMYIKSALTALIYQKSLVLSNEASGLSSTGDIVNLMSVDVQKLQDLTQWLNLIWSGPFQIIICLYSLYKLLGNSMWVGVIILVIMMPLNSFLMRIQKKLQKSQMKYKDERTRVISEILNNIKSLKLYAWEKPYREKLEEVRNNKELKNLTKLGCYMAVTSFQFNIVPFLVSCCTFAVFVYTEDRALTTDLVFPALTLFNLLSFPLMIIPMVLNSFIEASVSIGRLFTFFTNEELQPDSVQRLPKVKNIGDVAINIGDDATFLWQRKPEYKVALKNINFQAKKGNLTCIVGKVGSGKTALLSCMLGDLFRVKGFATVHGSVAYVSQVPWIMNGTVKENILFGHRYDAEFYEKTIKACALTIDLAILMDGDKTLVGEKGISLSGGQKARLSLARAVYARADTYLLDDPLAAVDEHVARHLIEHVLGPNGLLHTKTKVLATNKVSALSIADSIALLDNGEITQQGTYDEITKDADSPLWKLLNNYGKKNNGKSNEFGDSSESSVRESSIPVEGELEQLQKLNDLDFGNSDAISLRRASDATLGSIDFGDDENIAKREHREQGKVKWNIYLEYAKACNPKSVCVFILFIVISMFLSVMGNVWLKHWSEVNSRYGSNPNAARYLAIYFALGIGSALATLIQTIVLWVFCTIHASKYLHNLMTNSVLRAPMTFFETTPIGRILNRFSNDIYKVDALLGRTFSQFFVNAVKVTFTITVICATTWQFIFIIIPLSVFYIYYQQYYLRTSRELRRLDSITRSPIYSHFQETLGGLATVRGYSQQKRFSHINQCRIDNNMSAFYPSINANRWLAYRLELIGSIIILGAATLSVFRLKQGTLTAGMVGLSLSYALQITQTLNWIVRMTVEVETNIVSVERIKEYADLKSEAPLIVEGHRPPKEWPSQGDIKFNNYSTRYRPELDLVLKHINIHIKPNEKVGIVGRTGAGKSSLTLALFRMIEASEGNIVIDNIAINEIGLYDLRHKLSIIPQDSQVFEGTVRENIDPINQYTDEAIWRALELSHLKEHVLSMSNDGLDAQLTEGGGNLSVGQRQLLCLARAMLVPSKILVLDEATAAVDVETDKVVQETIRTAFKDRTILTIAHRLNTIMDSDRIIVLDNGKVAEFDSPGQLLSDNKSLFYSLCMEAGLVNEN
# How it was run: as §1
# [7] = test system: vacuolar GS-X pump (vacuolar membrane vesicles, Z. mays roots); assay: GS-conjugate uptake by vacuolar membrane vesicles from roots of Z. mays; assay type: biochemical, Zea mays
# [8] = test system: vacuolar membrane vesicles purified from Arabidopsis leaf / root; conditions: cited from earlier work
# [9] = Table 1: 66.2 μM DNP-GS, 3 mM MgATP, no addition
# [10] = Table 2: 5 μM gramicidin D, no compound
compound,measurement,setting,value
"N[C@@H](CCC(=O)N[C@@H](CSc1ccc([N+](=O)[O-])cc1[N+](=O)[O-])C(=O)NCC(=O)O)C(=O)O [DNP-GS, S-(2,4-dinitrophenyl)glutathione]","rate of MgATP-dependent, uncoupler-insensitive DNP-GS uptake",[1],2.1 nmol/mg/20 minutes
same,Vmax for AtMRP2-dependent [3H]DNP-GS uptake in the presence of Bn-NCC-1,[2]; 15 μM Bn-NCC-1,18.3±1.6 nmol/mg/10/min
same,Vmax for AtMRP2-dependent uptake,"[2]; MgATP-dependent, uncoupler-insensitive",16.3±3.1 nmol/mg/10 min
same,Km,[3],81.3 ± 41.8 µM
same,initial rate of DNP-GS uptake,[4]; 61.3 μM DNP-GS,0.1 nmol/mg/min
same,Km,[4]; read-out: apparent Km for DNP-GS uptake,> 500 µM
same,initial rate of DNP-GS uptake,"[5]; 3 mM MgATP, 66.2 μM DNP-GS",1.7 nmol/mg/min
same,"DNP-GS uptake, control",[5]; [9],15.4 ± 0.4 nmol/mg/10 minutes
same,"MgATP-dependent, uncoupler-insensitive DNP-GS uptake, control",[5]; [10],6.5 ± 0.8 nmol/mg/10 minutes
same,Vmax(DNP-GS) of MgATP-dependent uncoupler-insensitive uptake,"[6]; 3 mM MgATP, 5 μM gramicidin D",51.0±16.3 nmol/mg/10 minutes and 51.0±6.3 nmol/mg/10 minutes
same,initial rate of DNP-GS uptake,"[6]; 3 mM MgATP, 66.2 μM DNP-GS",12.2 nmol/mg/min
same,"DNP-GS uptake, control",[6]; [9],77.7 ± 1.0 nmol/mg/10 minutes
same,"MgATP-dependent, uncoupler-insensitive DNP-GS uptake, control",[6]; [10],47.9 ± 2.5 nmol/mg/10 minutes
same,"MgATP-dependent, uncoupler-insensitive DNP-GS uptake, vacuolar membrane","[6]; Table 4, vacuolar membrane vesicles from DTY165 cells",69.9 ± 1.0 nmol/mg/10 min
same,"MgATP-dependent, uncoupler-insensitive DNP-GS uptake, crude microsomes",[6]; crude microsomes from DTY165 cells,2.5 ± 0.3 nmol/mg/10 min
same,IC50,[7]; read-out: I50 for uptake of ABA-GS,232 µM
same,IC50,[7]; read-out: I50 for uptake of C3G-GS,112 µM
same,IC50,[7]; read-out: I50 for uptake of IAA-GS,110 µM
same,"rate of MgATP-dependent, uncoupler-insensitive DNP-GS uptake",[8]; Arabidopsis leaf,2.3 nmol/mg/20 minutes
same,"rate of MgATP-dependent, uncoupler-insensitive DNP-GS uptake",[8]; Arabidopsis root,3.8 nmol/mg/20 minutes
